The text below walks through data of patent publication US20240293379A1, “THERAPEUTIC AGENT FOR CANCER OF PATIENT WITH DECREASE IN RB1 FUNCTION USING MYT1 INHIBITOR AND CHEMOTHERAPEUTIC AGENT IN COMBINATION, AND TREATMENT METHOD THEREOF” (Chugai Seiyaku Kabushiki Kaisha, priority 2022, published 2024).

Like-named read-outs stand apart in the source and are kept apart here.

Broadly, the IC50 is the concentration at which inhibition is half-maximal.

For the experiment, the system named is LU65. In words: Pemetrexed cytotoxicity test upon suppression of expression of MYT1. It counts as cell-based. To be noted: Homo sapiens, LU65 (RB1 mutant), 7 days. Here is the method: Thereafter, the plates were shaken to transfect each siRNA at a final concentration of 10 nM.
The −Log 2 value of fold change of IC50 and the maximum value of Bliss score, which are indexes of the combination effect, were calculated by comparing with the actually obtained cell survival curve, and described in Table 6 (see Non Patent Literature 9).

With `Nc1nc2[nH]cc(CCc3ccc(C(=O)N[C@@H](CCC(=O)O)C(=O)O)cc3)c2c(=O)[nH]1` [pemetrexed], the IC50 (Lu-65, read-out: IC50 of pemetrexed, MYT1 #16, MYT1 siRNA #16 10 nM) is 134 nM; the IC50 (Lu-65, read-out: IC50 of pemetrexed, MYT1 #18, MYT1 siRNA #18 10 nM) worked out at 140 nM; the IC50 (Lu-65, read-out: IC50 of pemetrexed, NT, negative control siRNA 10 nM) was found to be 1070 nM.
